Test results: the NIST ThermoML archive (doi:10.1021/je034162x)
± gives the expanded uncertainty stated by the source.

Details: 101.33 kPa, Liquid, Hot wire method

CCc1ccccc1 [ethylbenzene]
thermal conductivity (258 K): 0.1375 ± 0.0011 W/m/K
thermal conductivity (258.29 K): 0.1374 ± 0.0011 W/m/K
thermal conductivity (258.5 K): 0.1373 ± 0.0011 W/m/K
thermal diffusivity (259.49 K): 9.45e-08 ± 1.8e-09 m2/s
thermal diffusivity (260.41 K): 9.43e-08 ± 1.8e-09 m2/s
thermal diffusivity (261.06 K): 9.41e-08 ± 1.8e-09 m2/s
thermal conductivity (277.34 K): 0.1328 ± 0.0011 W/m/K
thermal conductivity (277.65 K): 0.1327 ± 0.0011 W/m/K
thermal conductivity (277.88 K): 0.1326 ± 0.0011 W/m/K
thermal diffusivity (278.88 K): 9.04e-08 ± 1.7e-09 m2/s
thermal diffusivity (279.84 K): 9.02e-08 ± 1.7e-09 m2/s
thermal diffusivity (280.53 K): 9.02e-08 ± 1.7e-09 m2/s
thermal conductivity (295.86 K): 0.1282 ± 0.001 W/m/K
thermal conductivity (296.19 K): 0.128 ± 0.001 W/m/K
thermal conductivity (296.42 K): 0.128 ± 0.001 W/m/K
thermal diffusivity (297.44 K): 8.66e-08 ± 1.7e-09 m2/s
thermal diffusivity (298.45 K): 8.67e-08 ± 1.7e-09 m2/s
thermal diffusivity (299.16 K): 8.66e-08 ± 1.7e-09 m2/s
thermal conductivity (312.38 K): 0.124 ± 0.00099 W/m/K
thermal conductivity (312.72 K): 0.1238 ± 0.00099 W/m/K
thermal conductivity (312.96 K): 0.1237 ± 0.00099 W/m/K
thermal diffusivity (313.99 K): 8.29e-08 ± 1.6e-09 m2/s
thermal diffusivity (315.01 K): 8.28e-08 ± 1.6e-09 m2/s
thermal diffusivity (315.73 K): 8.28e-08 ± 1.6e-09 m2/s
thermal conductivity (329.05 K): 0.1199 ± 0.00096 W/m/K
thermal conductivity (329.41 K): 0.1197 ± 0.00096 W/m/K
thermal conductivity (329.66 K): 0.1196 ± 0.00096 W/m/K
thermal diffusivity (330.69 K): 7.97e-08 ± 1.5e-09 m2/s
thermal diffusivity (331.74 K): 7.96e-08 ± 1.5e-09 m2/s
thermal diffusivity (332.49 K): 7.95e-08 ± 1.5e-09 m2/s

C=CCCCC [hex-1-ene]
thermal conductivity (259.93 K): 0.1304 ± 0.001 W/m/K
thermal conductivity (260.19 K): 0.1305 ± 0.001 W/m/K
thermal conductivity (260.47 K): 0.1303 ± 0.001 W/m/K
thermal diffusivity (261.24 K): 9.12e-08 ± 1.7e-09 m2/s
thermal diffusivity (262.13 K): 9.15e-08 ± 1.7e-09 m2/s
thermal diffusivity (263.04 K): 9.14e-08 ± 1.7e-09 m2/s
thermal conductivity (275.98 K): 0.1247 ± 0.001 W/m/K
thermal conductivity (276.28 K): 0.1249 ± 0.001 W/m/K
thermal conductivity (276.6 K): 0.1245 ± 0.001 W/m/K
thermal diffusivity (277.38 K): 8.63e-08 ± 1.7e-09 m2/s
thermal diffusivity (278.3 K): 8.69e-08 ± 1.7e-09 m2/s
thermal diffusivity (279.25 K): 8.67e-08 ± 1.7e-09 m2/s
thermal conductivity (295.84 K): 0.1181 ± 0.00095 W/m/K
thermal conductivity (296.26 K): 0.1178 ± 0.00094 W/m/K
thermal conductivity (296.53 K): 0.1179 ± 0.00095 W/m/K
thermal diffusivity (297.34 K): 8.25e-08 ± 1.6e-09 m2/s
thermal diffusivity (298.59 K): 8.22e-08 ± 1.6e-09 m2/s
thermal diffusivity (299.33 K): 8.2e-08 ± 1.6e-09 m2/s
thermal conductivity (301.27 K): 0.1161 ± 0.00093 W/m/K
thermal conductivity (301.73 K): 0.116 ± 0.00093 W/m/K
thermal conductivity (301.96 K): 0.1158 ± 0.00093 W/m/K
thermal diffusivity (302.77 K): 8.05e-08 ± 1.6e-09 m2/s
thermal diffusivity (304.08 K): 8.06e-08 ± 1.6e-09 m2/s
thermal diffusivity (304.81 K): 8.04e-08 ± 1.6e-09 m2/s
thermal conductivity (314.67 K): 0.1119 ± 0.00091 W/m/K
thermal conductivity (315.04 K): 0.1115 ± 0.0009 W/m/K
thermal conductivity (315.38 K): 0.1112 ± 0.0009 W/m/K
thermal diffusivity (316.21 K): 7.67e-08 ± 1.5e-09 m2/s
thermal diffusivity (317.27 K): 7.71e-08 ± 1.5e-09 m2/s
thermal diffusivity (318.31 K): 7.68e-08 ± 1.5e-09 m2/s
thermal conductivity (329.14 K): 0.1071 ± 0.00087 W/m/K
thermal conductivity (329.53 K): 0.107 ± 0.00087 W/m/K
thermal conductivity (329.89 K): 0.1068 ± 0.00086 W/m/K
thermal diffusivity (330.76 K): 7.42e-08 ± 1.4e-09 m2/s
thermal diffusivity (331.81 K): 7.39e-08 ± 1.4e-09 m2/s
thermal diffusivity (332.96 K): 7.4e-08 ± 1.4e-09 m2/s

CC(C)c1ccccc1 [isopropylbenzene]
thermal conductivity (261.13 K): 0.1263 ± 0.00085 W/m/K
thermal conductivity (261.33 K): 0.1262 ± 0.00085 W/m/K
thermal conductivity (261.48 K): 0.1262 ± 0.00085 W/m/K
thermal diffusivity (261.85 K): 8.45e-08 ± 1.6e-09 m2/s
thermal diffusivity (262.36 K): 8.45e-08 ± 1.6e-09 m2/s
thermal diffusivity (262.72 K): 8.44e-08 ± 1.6e-09 m2/s
thermal conductivity (275.03 K): 0.1238 ± 0.00083 W/m/K
thermal conductivity (275.24 K): 0.1237 ± 0.00083 W/m/K
thermal conductivity (275.4 K): 0.1237 ± 0.00083 W/m/K
thermal diffusivity (275.75 K): 8.18e-08 ± 1.5e-09 m2/s
thermal diffusivity (276.27 K): 8.21e-08 ± 1.5e-09 m2/s
thermal diffusivity (276.65 K): 8.22e-08 ± 1.5e-09 m2/s
thermal conductivity (294.11 K): 0.1202 ± 0.00082 W/m/K
thermal conductivity (294.32 K): 0.12 ± 0.00081 W/m/K
thermal conductivity (294.47 K): 0.1199 ± 0.00081 W/m/K
thermal diffusivity (294.85 K): 7.92e-08 ± 1.5e-09 m2/s
thermal diffusivity (295.35 K): 7.86e-08 ± 1.5e-09 m2/s
thermal diffusivity (295.72 K): 7.86e-08 ± 1.5e-09 m2/s
thermal conductivity (312.46 K): 0.1164 ± 0.00079 W/m/K
thermal conductivity (312.68 K): 0.1163 ± 0.00079 W/m/K
thermal conductivity (312.84 K): 0.1162 ± 0.00079 W/m/K
thermal diffusivity (313.18 K): 7.51e-08 ± 1.4e-09 m2/s
thermal diffusivity (313.72 K): 7.54e-08 ± 1.4e-09 m2/s
thermal diffusivity (314.09 K): 7.53e-08 ± 1.4e-09 m2/s
thermal conductivity (329.45 K): 0.1128 ± 0.00077 W/m/K
thermal conductivity (329.68 K): 0.1127 ± 0.00077 W/m/K
thermal conductivity (329.83 K): 0.1126 ± 0.00076 W/m/K
thermal diffusivity (330.17 K): 7.21e-08 ± 1.4e-09 m2/s
thermal diffusivity (330.7 K): 7.21e-08 ± 1.4e-09 m2/s
thermal diffusivity (331.08 K): 7.21e-08 ± 1.4e-09 m2/s
